Assay results from PubChem BioAssay AID1259407 (Chemical Carcinogenesis Research Information System (CCRIS), 2018).
Active and inactive are the calls of the source. The rule behind the calls is not given here.

Test system: CCRIS mutagenicity, Ames/micronucleus/aberration tests
Assay: CCRIS mutagenicity studies

In the case of `CC[n+]1c(-c2ccccc2)c2cc(N)ccc2c2ccc(N)cc21`, the mutagenic call (End Point: IN VITRO MICRONUCLEUS, Test System: CHO CELLS, Metabolic Activation: RAT, LIVER, S-9, AROCLOR 1254) is reported as “inactive; negative”, the mutagenic call (Test System: AMES SALMONELLA TYPHIMURIUM, Strain/Indicator: TA97A, Metabolic Activation: NONE, Method: STANDARD PLATE) is reported as “inactive; negative” and the mutagenic call (Test System: AMES SALMONELLA TYPHIMURIUM, Strain/Indicator: TA97A, Metabolic Activation: RAT LIVER S-9, AROCLOR 1254, Method: STANDARD PLATE) is reported as “active; positive”. For the same compound, the mutagenic call (Test System: AMES SALMONELLA TYPHIMURIUM, Strain/Indicator: TA98, Metabolic Activation: NONE, Method: STANDARD PLATE) was “inactive; negative”, the mutagenic call (Test System: AMES SALMONELLA TYPHIMURIUM, Strain/Indicator: TA98, Metabolic Activation: RAT LIVER S-9, AROCLOR 1254, Method: STANDARD PLATE) was “active; positive” and the mutagenic call (Test System: AMES SALMONELLA TYPHIMURIUM, Strain/Indicator: TA98, Metabolic Activation: RAT, LIVER, S-9, AROCLOR 1254, HAMSTER, LIVER, S-9, AROCLOR 1254, Method: STANDARD PLATE) was “active; positive”. For the same compound, the mutagenic call (Test System: AMES SALMONELLA TYPHIMURIUM, Strain/Indicator: TA98, Metabolic Activation: RAT, LIVER, S-9, AROCLOR 1254, Method: STANDARD PLATE) was “active; positive”, the mutagenic call (Test System: AMES SALMONELLA TYPHIMURIUM, Strain/Indicator: TA98, Metabolic Activation: RAT, LIVER, S-9, AROCLOR 1254 OR PHENOBARBITOL, Method: STANDARD PLATE) was “active; positive” and the mutagenic call (Test System: AMES SALMONELLA TYPHIMURIUM, Strain/Indicator: TA100, Metabolic Activation: NONE, Method: STANDARD PLATE) was “inactive; negative”. For the same compound, the mutagenic call (Test System: AMES SALMONELLA TYPHIMURIUM, Strain/Indicator: TA100, Metabolic Activation: RAT LIVER S-9, AROCLOR 1254, Method: STANDARD PLATE) was “inactive; negative”, the mutagenic call (Test System: AMES SALMONELLA TYPHIMURIUM, Strain/Indicator: TA100, Metabolic Activation: RAT, LIVER, S-9, AROCLOR 1254 OR PHENOBARBITOL, Method: STANDARD PLATE) was “inactive; negative” and the mutagenic call (Test System: AMES SALMONELLA TYPHIMURIUM, Strain/Indicator: TA102, Metabolic Activation: NONE, Method: STANDARD PLATE) was “inactive; negative”. For the same compound, the mutagenic call (Test System: AMES SALMONELLA TYPHIMURIUM, Strain/Indicator: TA102, Metabolic Activation: RAT LIVER S-9, AROCLOR 1254, Method: STANDARD PLATE) was “active; positive”, the mutagenic call (Test System: AMES SALMONELLA TYPHIMURIUM, Strain/Indicator: TA1535, Metabolic Activation: NONE, Method: STANDARD PLATE) was “inactive; negative” and the mutagenic call (Test System: AMES SALMONELLA TYPHIMURIUM, Strain/Indicator: TA1535, Metabolic Activation: RAT LIVER S-9, AROCLOR 1254, Method: STANDARD PLATE) was “inactive; negative”. For the same compound, the mutagenic call (Test System: AMES SALMONELLA TYPHIMURIUM, Strain/Indicator: TA1535, Metabolic Activation: RAT, LIVER, S-9, AROCLOR 1254 OR PHENOBARBITOL, Method: STANDARD PLATE) was “inactive; negative”, the mutagenic call (Test System: AMES SALMONELLA TYPHIMURIUM, Strain/Indicator: TA1537, Metabolic Activation: NONE, Method: STANDARD PLATE) was “inactive; negative” and the mutagenic call (Test System: AMES SALMONELLA TYPHIMURIUM, Strain/Indicator: TA1537, Metabolic Activation: RAT LIVER S-9, AROCLOR 1254, Method: STANDARD PLATE) was “active; positive”. For the same compound, the mutagenic call (Test System: AMES SALMONELLA TYPHIMURIUM, Strain/Indicator: TA1537, Metabolic Activation: RAT, LIVER, S-9, AROCLOR 1254, HAMSTER, LIVER, S-9, AROCLOR 1254 (2.5-20%), Method: STANDARD PLATE) was “active; positive”, the mutagenic call (Test System: AMES SALMONELLA TYPHIMURIUM, Strain/Indicator: TA1537, Metabolic Activation: RAT, LIVER, S-9, AROCLOR 1254, HAMSTER, LIVER, S-9, AROCLOR 1254, Method: STANDARD PLATE) was “active; positive” and the mutagenic call (Test System: AMES SALMONELLA TYPHIMURIUM, Strain/Indicator: TA1537, Metabolic Activation: RAT, LIVER, S-9, AROCLOR 1254 OR PHENOBARBITOL, Method: STANDARD PLATE) was “active; positive”. The mutagenic call (Test System: AMES SALMONELLA TYPHIMURIUM, Strain/Indicator: TA1538, Metabolic Activation: NONE, Method: STANDARD PLATE) was “inactive; negative”, the mutagenic call (Test System: AMES SALMONELLA TYPHIMURIUM, Strain/Indicator: TA1538, Metabolic Activation: RAT LIVER S-9, AROCLOR 1254, Method: STANDARD PLATE) was “active; positive” and the mutagenic call (Test System: AMES SALMONELLA TYPHIMURIUM, Strain/Indicator: TA1538, Metabolic Activation: RAT, LIVER, S-9, AROCLOR 1254, HAMSTER, LIVER, S-9, AROCLOR 1254, Method: STANDARD PLATE) was “active; positive”. For the same compound, the mutagenic call (Test System: AMES SALMONELLA TYPHIMURIUM, Strain/Indicator: TA1538, Metabolic Activation: RAT, LIVER, S-9, AROCLOR 1254, Method: STANDARD PLATE) was “active; positive”, the mutagenic call (Test System: AMES SALMONELLA TYPHIMURIUM, Strain/Indicator: TA1538, Metabolic Activation: RAT, LIVER, S-9, AROCLOR 1254 OR PHENOBARBITOL, Method: STANDARD PLATE) was “active; positive” and the mutagenic call (Test System: CHINESE HAMSTER OVARY, Strain/Indicator: CHO-K1-BH4 (HGPRT)/6-THIOGUANINE, Metabolic Activation: NONE, Method: SUSPENSION/PLATE) was “inactive; negative”. The mutagenic call (Test System: CHINESE HAMSTER OVARY, Strain/Indicator: CHO-K1-BH4 (HGPRT)/6-THIOGUANINE, Metabolic Activation: S-9, Method: SUSPENSION/PLATE) was “inactive; negative”, the mutagenic call (Test System: CHINESE HAMSTER OVARY, Strain/Indicator: CHO-K1-BH4 (HGPRT), Metabolic Activation: NONE, Method: SUSPENSION/PLATE) was “inactive; negative” and the mutagenic call (Test System: CHINESE HAMSTER OVARY, Strain/Indicator: CHO-K1-BH4 (HGPRT), Metabolic Activation: RAT, LIVER, S-9, AROCLOR, Method: SUSPENSION/PLATE) was “inactive; negative”. The mutagenic call (Test System: CHINESE HAMSTER V-79, Strain/Indicator: V-79/6-THIOGUANINE, Metabolic Activation: NONE, Method: FLASK ASSAY) was “inactive; negative”, the mutagenic call (Test System: E. COLI, Strain/Indicator: WP2, Metabolic Activation: NONE, Method: PREINCUBATION) was “inactive; negative” and the mutagenic call (Test System: E. COLI, Strain/Indicator: WP2 UVRA, Metabolic Activation: NONE, Method: PREINCUBATION) was “inactive; negative”. For the same compound, the mutagenic call (Test System: MOUSE LYMPHOMA, Strain/Indicator: L5178Y (TK+/TK-), Metabolic Activation: RAT, LIVER, S-9, AROCLOR 1254, Method: SUSPENSION/PLATE) was “active; positive. reevaluation of results: positive” and the mutagenic call (Test System: MOUSE LYMPHOMA, Strain/Indicator: L5178Y (TK+/TK-), Metabolic Activation: S-9, Method: SUSPENSION/PLATE) was “inactive; negative”.

`Fc1cccc2c1ccc1cccnc12` was tested, and the mutagenic call (Test System: AMES SALMONELLA TYPHIMURIUM, Strain/Indicator: TA100, Metabolic Activation: RAT, LIVER, S-9, PHENOBARBITAL AND 5,6-BENZOFLAVONE, Method: PREINCUBATION) was “active; positive”.
